Reference: patent US5079260A, “Method for treating inflammation and compounds and compositions suitable for use therein” (Nova Pharmaceutical Corporation, priority 1990, dated 1992)

Columns and labels:
[1] = tested on: Reverse Passive Artus Reaction; test: Reverse Passive Artus Reaction (I), Table 6; type: in vivo, Male CD rats; details: inhibition of blueing
Text: (§1) Such inflammatory agents typically include tetradecanoylphorbolacetate, arachidonic acid, xylene, capsaicin, oxazolone, carrageenan and the like. The reverse passive Arthus test offers another measure of the compound's utility in preventing an inflammatory response (Chang et al, Eur. J. Pharm. 69:155-164 (1981)). Test compounds are typically administered intraperitoneally or topically. For intraperitoneal administration, the test compound can be given in dimethyl sulfoxide or in 0.5% methylcellulose 30 minutes prior to administration of the irritant. For topical administration, the test compound can be dissolved in, for example, acetone, ethanol or dimethyl sulfoxide and applied about 15 minutes prior to application of the irritant. Results can be expressed as the percent decrease in swelling in the compound-treated animals as compared to control animals that receive only the irritant.
Reverse Passive Artus Reaction (I)
Male CD rats weighing between 200 and 250 g were used. Test compounds (compounds of Formula I where X is oxygen, R3, R4, A and B are hydrogen and Q is as indicated in Table 6) were dissolved in dimethyl sulfoxide and 200 μl of this solution (100 mg/kg) were injected intraperitoneally one hour before administration of the antigen. The animals were anesthetized inhalationally with isoflurane and then were injected through the penile vein with 1 ml of a solution of 2.5 mg of Evan's blue dye and 5.0 mg of human serum albumin in 1 ml of saline. This treatment was followed immediately by intracutaneous injections of 0.03 ml of anti-human albumin diluted to contain 3.65 mg of antibody at 3 sites along the midline back. Anesthesia was terminated and after three hours the animals were sacrificed. The skin was removed and the blue stained areas cut out. […] The tube contents were agitated and centrifuged, and the absorbance of the supernatant liquid was measured at 620 nm. The data were calculated as inhibition of blueing by test compound compared to control animals receiving only antigen and antibody.

[2] = tested on: Ear Edema Caused by Tetradecanoylphorbolacetate; test: Inhibition of Ear Edema Caused by Tetradecanoylphorbolacetate (I), Table 1; type: in vivo, CF-1 Mice; details: i.p.
Text: as §1
Inhibition of Ear Edema Caused by Tetradecanoylphorbolacetate (I)
CF-1 Mice, 25-30 g body weight, six animals per group, were used. Test compounds (compounds of Formula I where X is oxygen, R3, R4, A and B are hydrogen and Q is as indicated in Table 1) were administered intraperitoneally (100 mg/kg) or topically as follows. For intraperitoneal administration, the test compound was dissolved in dimethyl sulfoxide or 0.5% methylcellulose and 100 μl was injected 30 minutes prior to irritant (100 mg/kg, i.p.). For topical administration, the test compound was dissolved in either acetone, ethanol or dimethyl sulfoxide and 5 μl (100 μg) applied to the upper surface (1 cm^2) of the ear and an additional 5 μl (100 μg) applied to the lower surface (1 cm^2) of the ear fifteen minutes prior to application of the irritant. A solution of the irritant, tetradecanoylphorbolacetate, 200 μg/ml, was added to the surface of the ear, 5 μl added to the upper surface and 5 μl to the lower surface. After three hours, the thickness of the ear was measured to 0.01 mm by a micrometer with loose drag positioned at the lateral-most edge of the mid-point of the pinna. Data were calculated as the inhibition by the test compound of increased ear thickness compared to control animals receiving only the irritant.

[3] = tested on: Ear Edema Caused by Arachidonic Acid; test: Inhibition of Ear Edema Caused by Arachidonic Acid (II), Table 8; type: in vivo, CF-1 mice; details: i.p., sixty minutes
Summary of the method: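 CF-1 mice (25-30 g, six/group) dosed intraperitoneally with compound in DMSO or 0.5% methylcellulose 30 min before topical arachidonic acid (100 mg/mL in ethanol, both ear surfaces).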

[4] = tested on: Ear Edema Caused by Xylene; test: Inhibition of Ear Edema Caused by Xylene (II), Table 9; type: in vivo, CF-1 mice; details: i.p., 2 h
Summary of the method: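 CF-1 mice (25-30 g, six per group) received compound i.p. in DMSO or 0.5% methylcellulose 30 min before xylene was applied to both ear surfaces. Ear thickness was measured by micrometer 2 h later. Values are percent inhibition of the increase in ear thickness versus irritant-only controls.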

[5] = tested on: Ear Edema Caused By Tetradecanoylphorbol Acetate; test: Inhibition of Ear Edema Caused by Tetradecanoylphorbol Acetate (II), Table 7; type: in vivo, CF-1 Mice; details: i.p., 3 h
[6] = tested on: Ear Edema Caused by Oxazolone; test: Inhibition of Ear Edema Caused by Oxazolone (I), Table 5; type: in vivo, CF-1 Mice; details: 24 h
Text: as §1
Inhibition of Ear Edema Caused by Oxazolone (I)
CF-1 Mice, 25-30 g body weight, six animals per group, were used. The mice were sensitized to the irritant two weeks prior to the test by dribbling 100 μl of a 3% solution of oxazolone in acetone onto the abdominal skin of the animal. Test compounds (compounds of Formula I where X is oxygen, R3, R4, A and B are hydrogen and Q is as indicated in Table 5) were administered intraperitoneally as follows. The test compound was dissolved in DMSO or 0.5% methylcellulose and 100 μl (100 mg/kg) was injected 30 minutes prior to irritant. The irritant, 3% oxazolone in acetone, was added to the surface of the ear, 5 μl added to the upper surface and 5 μl to the lower surface. After twenty four hours, the thickness of the ear was measured to 0.01 mm by a micrometer with loose drag positioned at the lateral-most edge of the mid-point of the pinna. Data were calculated as the inhibition by the test compound of increased ear thickness compared to control animals receiving only the irritant.

[7] = tested on: Reverse Passive Artus Reaction; test: Reverse Passive Artus Reaction (II), Table 11; type: in vivo, Male CD rats; details: inhibition of blueing, i.p.
[8] = tested on: Ear Edema Caused by Arachidonic Acid; test: Inhibition of Ear Edema Caused by Arachidonic Acid (I), Table 2; type: in vivo, CF-1 Mice; details: i.p., 100 mg/kg; ear thickness at sixty minutes
Text: as §1
Inhibition of Ear Edema Caused by Arachidonic Acid (I)
CF-1 Mice, 25-30 g body weight, six animals per group, were used. Test compounds (compounds of Formula I where X is oxygen, R3, R4, A and B are hydrogen and Q is as indicated in Table 2) were administered intraperitoneally (100 mg/kg) as follows. For intraperitoneal administration, test compound was dissolved in DMSO or 0.5% methylcellulose and 100 μl was injected 30 minutes prior to i.p. administration of 100 mg/kg of arachidonic acid. A solution of the irritant, arachidonic acid, 100 mg/ml in ethanol, was added to the surface of the ear, 5 μl added to the upper surface and 5 μl to the lower surface. After sixty minutes, the thickness of the ear was measured to 0.01 mm by a micrometer with loose drag positioned at the lateral-most edge of the mid-point of the pinna. Data were calculated as the percent inhibition by the test compound of increased ear thickness compared to control animals receiving only the irritant.

[9] = tested on: Ear Edema Caused by Xylene; test: Inhibition of Ear Edema Caused by Xylene (I), Table 3; type: in vivo, CF-1 Mice; details: 2 h; for % Inhibition Intraperitoneal: i.p., 100 mg/kg, 30 min before irritant
Text: as §1
Inhibition of Ear Edema Caused by Xylene (I)
CF-1 Mice, 25-30 g body weight, six animals per group, were used. Test compounds (compounds of Formula I where X is oxygen, R3, R4, A and B are hydrogen and Q is as indicated in Table 3) were administered intraperitoneally (100 mg/kg) or topically as follows. For intraperitoneal administration, the test compound was dissolved in DMSO or 0.5% methylcellulose and 100 μl was injected 30 minutes prior to irritant. For topical administration, test compound was dissolved in either acetone, ethanol or dimethyl sulfoxide and 5 μl (10 μg) applied to the upper surface (1 cm^2) of the ear and an additional 5 μl (10 μg) applied to the lower surface (1 cm^2) of the ear fifteen minutes prior to application of the irritant. The irritant, xylene, was added to the surface of the ear, 20 μl added to the upper surface and 20 μl to the lower surface. After two hours, the thickness of the ear was measured to 0.01 mm by a micrometer with loose drag positioned at the lateral-most edge of the mid-point of the pinna. Data were calculated as the inhibition by the test compound of increased ear thickness compared to that of control animals receiving only the irritant.

[10] = tested on: Adjuvant Induced Fibrinogen; test: Adjuvant Arthritis: Inhibition of Adjuvant Induced Fibrinogen, Table 12; type: in vivo, Male Sprague Dawley rats; details: i.p., 100 mg/kg, day 3
[11] = tested on: Ear Edema Caused by Oxazolone; test: Inhibition of Ear Edema Caused by Oxazolone (II), Table 10; type: in vivo, CF-1 mice; details: i.p., 24 h
[12] = 100 mg/kg, 30 min before irritant, ear thickness at 3 h

SMILES: COc1cc2c(c(OC)c1OC)-c1ccc(OC)c(=O)cc1[C@@H](NC(C)=O)CC2 [Colchicine, reference compound]
- % Inhibition Intraperitoneal ([1]; Reference Standard 1 mg/kg): 64%

SMILES: C[C@@H]1C[C@H]2[C@@H]3CCC4=CC(=O)C=C[C@]4(C)[C@@]3(F)[C@@H](O)C[C@]2(C)[C@@]1(O)C(=O)CO [Dexamethasone, reference compound]
- % Inhibition Intraperitoneal ([2]; Reference Standard, 10 mg/kg, 3 h): 50%
- % Inhibition Intraperitoneal ([3]; 10 mg/kg): 12%
- % Inhibition ([4]; 10 mg/kg): 34%
- % Inhibition Intraperitoneal ([5]; 10 mg/kg): 50%
- % Inhibition Intraperitoneal ([6]; Reference Standard at 10 mg/kg): 48%
- % Inhibition Intraperitoneal ([7]; 10 mg/kg): 4%

SMILES: O=C(N[C@@H](Cc1ccccc1)C(=O)O)OCC1c2ccccc2-c2ccccc21 [L-Phenylalanine, N-[(9H-Fluoren-9-ylmethoxy)carbonyl]-L-phenylalanine]
- % Inhibition Intraperitoneal [2, 12]: 78%
- % Inhibition Intraperitoneal [8]: 70%
- % Inhibition Intraperitoneal ([1]; i.p., 100 mg/kg, one hour before antigen): 47%
- % Inhibition Intraperitoneal ([6]; i.p., 100 mg/kg, 30 min before irritant, sensitized mice): 62%
- % Inhibition Intraperitoneal [9]: 49%
- % Inhibition, topical ([9]; topical, 10 μg upper + 10 μg lower ear surface, 15 min before irritant): 50%

SMILES: CC(C)C[C@H](NC(=O)OCC1c2ccccc2-c2cc3ccccc3cc21)C(=O)O (stereo partly drawn) [NPC 15510, N-[9H-(2,3-Benzofluoren-9-ylmethoxy)carbonyl]-L-leucine]
- % Inhibition [10]: 35%
- % Inhibition Intraperitoneal ([3]; 10 mg/kg): -24%
- % Inhibition Intraperitoneal ([3]; 30 mg/kg): 69%
- % Inhibition Intraperitoneal ([3]; 100 mg/kg): 67%
- % Inhibition ([4]; 10 mg/kg): 40%
- % Inhibition ([4]; 30 mg/kg): 40%
- % Inhibition ([4]; 100 mg/kg): 49%
- % Inhibition Intraperitoneal ([5]; 10 mg/kg): 48%
- % Inhibition Intraperitoneal ([5]; 30 mg/kg): 70%
- % Inhibition Intraperitoneal ([5]; 100 mg/kg): 70%
- % Inhibition Intraperitoneal ([7]; 100 mg/kg): 50%
- % Inhibition Intraperitoneal ([11]; 10 mg/kg): -7%
- % Inhibition Intraperitoneal ([11]; 30 mg/kg): 3%
- % Inhibition Intraperitoneal ([11]; 100 mg/kg): 101%

SMILES: CC(C)C[C@H](NC(=O)OCC1c2ccccc2-c2ccccc21)C(N)=O [NPC 15528, N-[(9H-Fluoren-9-ylmethoxy)carbonyl]-L-leucine Amide]
- % Inhibition [10]: 0%
- % Inhibition Intraperitoneal ([3]; 10 mg/kg): 31%
- % Inhibition Intraperitoneal ([3]; 30 mg/kg): 32%
- % Inhibition Intraperitoneal ([3]; 100 mg/kg): 35%
- % Inhibition ([4]; 10 mg/kg): 20%
- % Inhibition ([4]; 30 mg/kg): 27%
- % Inhibition ([4]; 100 mg/kg): 39%
- % Inhibition Intraperitoneal ([5]; 10 mg/kg): 61%
- % Inhibition Intraperitoneal ([5]; 30 mg/kg): 64%
- % Inhibition Intraperitoneal ([5]; 100 mg/kg): 75%
- % Inhibition Intraperitoneal ([7]; 100 mg/kg): 0%
- % Inhibition Intraperitoneal ([11]; 10 mg/kg): 41%
- % Inhibition Intraperitoneal ([11]; 30 mg/kg): 25%
- % Inhibition Intraperitoneal ([11]; 100 mg/kg): 46%

SMILES: CN1C(C(=O)Nc2ccccn2)=C(O)c2ccccc2S1(=O)=O [Piroxicam, reference compound]
- % Inhibition Intraperitoneal [2, 12]: 40%
- % Inhibition Intraperitoneal [8]: 86%
- % Inhibition Intraperitoneal ([3]; 10 mg/kg): 56%
- % Inhibition Intraperitoneal ([3]; 30 mg/kg): 77%
- % Inhibition Intraperitoneal ([3]; 100 mg/kg): 86%
- % Inhibition ([4]; 10 mg/kg): 53%
- % Inhibition ([4]; 30 mg/kg): 49%
- % Inhibition ([4]; 100 mg/kg): 74%
- % Inhibition Intraperitoneal ([5]; 10 mg/kg): 7%
- % Inhibition Intraperitoneal ([5]; 30 mg/kg): 14%
- % Inhibition Intraperitoneal ([5]; 100 mg/kg): 40%
- % Inhibition Intraperitoneal [9]: 74%
